Read-outs that look alike come from different tables or passages of the source.
How the values were obtained:
[1] = Transwell assay for membrane efflux and permeability; type: in vitro ADME, Canine; conditions: dog; MDCK-BCRP or MDCKII-MDR1 transwell, test compound 1 μM, 2 hours at 37° C.
Description: Compounds described herein were screened for cell membrane permeability and efflux in a transwell assay using Madin-Darby Canine Kidney (MDCK) cells expressing Breast Cancer Resistance Protein (BCRP) or subclone MDCKII cells expressing Multidrug Resistance Protein 1 (MDR1).
MDCK-BCRP or MDCKII-MDR1 Cells: The Netherlands Cancer Institute, High Glucose Dulbecco's Modified Eagle's Medium (DMEM): Gibco/Thermo Fisher Scientific, Fetal Bovine Serum (FBS): Coming, Hank's Balanced Salt Solution (HBSS) and Trypsin/EDTA: Gibco/Thermo Fisher Scientific, HTS Transwell-96 Well Permeable Supports: Coming Corporation, Millicell Epithelial Volt-Ohm: Millipore, Cellometer® Vision: Nexcelom Bioscience LLC, Infinite 200 PRO microplate reader: Tecan, MTS2/4 orbital shaker: IKA Labortechnik, HEPES/Penicillin/Streptomycin: Solarbio.
MDCK-BCRP or MDCKII-MDR1 cells were seeded to each of the wells of the transwell plate at a density of 1.6×10^6 cells/mL and the plate was incubated for 4-8 days with medium changes every two days. To perform the drug transport assay, cell monolayers were first washed three times with pre-warmed HBSS and then incubated with gentle shaking (150 rpm) for 30 min at 37° C. Stock solutions of test compounds (e.g., exemplary compounds of Formulas (I), (II), and (III)) and control compounds (e.g., metoprolol, prazosin, and/or imatinib) were prepared in DMSO and adjusted to a working solution using HBSS. The final concentration of test compounds was 1 μM with DMSO; 0.5%. The plates were incubated at 37° C. for 2 hours.

MYB = experiment: Splicing RT-qPCR assay, MYB mRNA canonical junction (CJ) and alternative junction (AJ); type: cell-based, human; conditions: for AC50: increase in AJ mRNA
Summary of the method: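 A673 or K562 cells treated 24 h at 37 °C with 11-point 3-fold dilutions, top 10 uM, DMSO ≤0.25%. Lysates read by RT-qPCR for CJ and AJ isoforms, normalized to GAPDH, GUSB or PPIA; ΔΔCt vs DMSO converted to RQ, then percent response.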

[2] = Homo sapiens, RT-qPCR panel, canonical junction mRNA, compound concentration having 50% response in CJ decrease, read-out: MYB IC50 (decrease in CJ mRNA levels)
[3] = Homo sapiens, 24 h, decrease in CJ mRNA, A673 or K562 cells, 24 hours treatment, RT-qPCR, read-out: MYB CJ IC50
[4] = Homo sapiens, 24 h, A673 or K562 cells, 24 hours treatment, RT-qPCR
[5] = Homo sapiens, gene panel, CJ qPCR, protocol of Example 142, read-out: MYB IC50 (decrease in CJ mRNA levels)
[6] = RT-qPCR panel, canonical junction mRNA, compound concentration having 50% response in CJ decrease, read-out: MYB IC50 (decrease in CJ mRNA levels)
[7] = decrease in CJ mRNA, A673 or K562 cells, 24 hours treatment, RT-qPCR, read-out: MYB CJ IC50

Row | Compound | Papp at 2 h, 1 μM [1] [×10⁻⁶ cm/s] | efflux ratio at 2 h, 1 μM [1] | IC50 (MYB; [2]) [nM] | IC50 (MYB; [3]) [nM] | AC50 (MYB; [4]) [nM] | IC50 (MYB; [5]) [nM] | IC50 (MYB; [6]) [nM] | IC50 (MYB; [7]) [nM]
1 | CN(c1ncc(-c2ccc(-n3cncn3)c3[nH]ncc23)nn1)[C@@H]1C[C@H]2CCC[C@@H](C1)N2 [Compound 574] | < 2 | > 5 | 100 to 1000 |  |  |  |  | 
2 | CN(c1ccc(-c2ccc(-c3cn[nH]c3)c3ncsc23)nn1)[C@@H]1C[C@H]2CCC[C@@H](C1)N2 [Compound 226] | < 2 | > 5 | < 100 | < 100 | < 100 |  |  | 
3 | CN(c1ccc(-c2ccc(-c3cnn(C)c3)c3cn[nH]c23)nn1)C1CCNCC1 [Compound 242] | < 2 | > 5 | > 10000 | > 10000 | > 10000 |  |  | 
4 | c1nc2c(-c3cn[nH]c3)ccc(-c3ccc(N[C@@H]4C[C@H]5CCC[C@@H](C4)N5)nn3)c2s1 [Compound 215] | < 2 | > 5 | 100 to 1000 | 100 to 1000 | < 100 |  |  | 
5 | CN(c1ncc(-c2ccc(-n3ccnn3)c3[nH]ncc23)nn1)[C@@H]1C[C@H]2CCC[C@@H](C1)N2 [Compound 576] | < 2 | > 5 | 1000 to 10000 |  |  |  |  | 
6 | COc1cc(-c2ccc(-c3ccc(O[C@@H]4C[C@H]5CC[C@@H](C4)N5)nn3)c3scnc23)cnn1 [Compound 362] | 2 to 6 | > 5 | 100 to 1000 | 100 to 1000 | < 100 |  |  | 
7 | CN(c1ccc(-c2cc(F)c(-c3cn[nH]c3)c3cn[nH]c23)nn1)[C@@H]1C[C@H]2CC(F)(F)[C@@H](C1)N2 (stereo in doubt) [Compound 378, 6,6-difluoro-N-{6-[5-fluoro-4-(1H-pyrazol-4-yl)-1H-indazol-7-yl]pyridazin-3-yl}-N-methyl-8-azabicyclo[3.2.1]octan-3-amine] | 2 to 6 | > 5 | 100 to 1000 | 100 to 1000 | < 100 |  |  | 
8 | CN(c1ccc(-c2ccc(-c3cn[nH]c3)c(OC3CC3)n2)nn1)[C@@H]1C[C@H]2CC[C@@H](C1)N2 [Compound 939] | < 2 | > 5 |  |  |  | 100 to 1000 |  | 
9 | c1nc2c(-c3cn[nH]c3)ccc(-c3ccc(OC4CCNCC4)nn3)c2s1 [Compound 183] | < 2 | > 5 | 100 to 1000 | 100 to 1000 | 100 to 1000 |  |  | 
10 | CCN(c1ccc(C2=CC=C(c3cn[nH]c3)C3N=CSC23)nn1)[C@@H]1C[C@H]2CC[C@@H](C1)N2 (stereo partly shown) [Compound 203] | < 2 | > 5 | 100 to 1000 | 100 to 1000 | 100 to 1000 |  |  | 
11 | Cc1ncc(-c2ccc(-c3cnc(N(C)[C@@H]4C[C@H]5CCC[C@@H](C4)N5)nn3)c3scnc23)s1 [Compound 578] | < 2 | > 5 | 100 to 1000 |  |  |  |  | 
12 | CN(c1ccc(-c2ccc(-c3cn[nH]c3)c(F)n2)nn1)[C@@H]1C[C@H]2CC[C@@H](C1)N2 [Compound 922] | < 2 | > 5 |  |  |  | 100 to 1000 |  | 
13 | CN(c1ccc(-c2ccc(-n3cccn3)c3cn[nH]c23)nn1)[C@@H]1C[C@H]2CC[C@@H](C1)N2 [Compound 105] | < 2 | > 5 | < 100 | < 100 | 100 to 1000 |  |  | 
14 | CCOc1nc(-c2ccc(OC3CC(C)(C)NC(C)(C)C3)nn2)ccc1-c1cn[nH]c1 [Compound 967] | 2 to 6 | 1.5 to 5 |  |  |  | 100 to 1000 |  | 
15 | CC(C)(C)NC1CCN(c2ccc(-c3ccc(-c4cn[nH]c4)c4ncsc34)nn2)C1 (stereo not shown) [Compound 336] | 2 to 6 | > 5 |  |  |  |  | 100 to 1000 | 100 to 1000
16 | CN(c1ccc(-c2ccc(-c3cn[nH]c3)cn2)nn1)[C@@H]1C[C@H]2CC[C@@H](C1)N2 [Compound 915] | < 2 | < 1.5 |  |  |  | 100 to 1000 |  | 

Row | Compound | Papp at 2 h, 1 μM [1] [×10⁻⁶ cm/s] | efflux ratio at 2 h, 1 μM [1] | IC50 (MYB; [2]) [nM] | IC50 (MYB; [3]) [nM] | AC50 (MYB; [4]) [nM] | IC50 (MYB; [5]) [nM] | IC50 (MYB; [6]) [nM] | IC50 (MYB; [7]) [nM]
17 | CCOc1nc(-c2ccc(OC3CC(C)(C)NC(C)(C)C3)nn2)cc(F)c1-c1cn[nH]c1 [Compound 966] | 2 to 6 | > 5 |  |  |  | 100 to 1000 |  | 
18 | CN(c1ccc(-c2ccc(-c3cn[nH]c3)c3cn[nH]c23)nn1)C1CC(C)(C)NC(C)(C)C1 [Compound 137] | < 2 | > 5 | 1000 to 10000 | 1000 to 10000 | 1000 to 10000 |  |  | 
19 | CN(c1ccc(-c2cc(F)c(-c3cnn(C)c3)c3cn[nH]c23)nn1)[C@@H]1C[C@H]2CC[C@@H](C1)N2 [Compound 291] | < 2 | > 5 | < 100 | < 100 | < 100 |  |  | 
20 | c1nc2c(-c3cn[nH]c3)ccc(-c3ccc(N[C@@H]4C[C@H]5CC[C@@H](C4)N5)nn3)c2s1 [Compound 202] | < 2 | > 5 | 100 to 1000 | 100 to 1000 | 100 to 1000 |  |  | 
21 | CC1(C)CC(Oc2ccc(-c3cc(F)c(-c4cn[nH]c4)c4cn[nH]c34)nn2)CC(C)(C)N1 [Compound 307] | 2 to 6 | > 5 | 100 to 1000 | 100 to 1000 | 1000 to 10000 |  |  | 
22 | CN(c1ccc(-c2ccc(-c3ccc(=O)n(C)c3)c3scnc23)nn1)C1CC(C)(C)NC(C)(C)C1 [Compound 178] | < 2 | > 5 | 1000 to 10000 | 1000 to 10000 | > 10000 |  |  | 
23 | CN(c1ncc(-c2ccc(-n3cccn3)c3[nH]ncc23)nn1)[C@@H]1C[C@H]2CCC[C@@H](C1)N2 [Compound 551] | 2 to 6 | > 5 | 100 to 1000 |  |  |  |  | 
24 | CC1(C)CC(Nc2ccc(-c3ccc(-c4cn[nH]c4)c4ncsc34)nn2)CC(C)(C)N1 [Compound 186] | < 2 | > 5 | 100 to 1000 | 100 to 1000 | > 10000 |  |  | 
25 | COc1nc(-c2ccc(O[C@@H]3C[C@H]4CC[C@@H](C3)N4)nn2)ccc1-c1cnc(C)s1 [Compound 962] | 2 to 6 | 1.5 to 5 |  |  |  | 100 to 1000 |  | 
26 | COc1nc(-c2ccc(N(C)[C@@H]3C[C@H]4CC[C@@H](C3)N4)nn2)ccc1-c1ccnc(O)c1 [Compound 961] | < 2 | 1.5 to 5 |  |  |  | 100 to 1000 |  | 
27 | Cc1ncc(-c2ccc(-c3ccc(O[C@@H]4C[C@H]5CC[C@@H](C4)N5)nn3)c3scnc23)s1 [Compound 348, 7-{6-[(exo)-8-azabicyclo[3.2.1]octan-3-yloxy]pyridazin-3-yl}-4-(2-methyl-1,3-thiazol-5-yl)-1,3-benzothiazole] | < 2 | > 5 | 100 to 1000 | 100 to 1000 | 100 to 1000 |  |  | 
28 | COc1cc(-c2ccc(-c3ccc(N(C)[C@@H]4C[C@H]5CC[C@@H](C4)N5)nn3)nc2OC)ncn1 [Compound 954] | < 2 | > 5 |  |  |  | 1000 to 10000 |  | 
29 | c1nc2c(-c3cn[nH]c3)ccc(-c3ccc(N4CCC(NC5CC5)C4)nn3)c2s1 (stereo not shown) [Compound 337] | 2 to 6 | < 1.5 | > 10000 | > 10000 | > 10000 |  |  | 
30 | CN(c1ccc(-c2ccc(-c3cn[nH]c3)c3ncsc23)nn1)[C@@H]1C[C@H]2CC(F)(F)[C@@H](C1)N2 (stereo in doubt) [Compound 379, 6,6-difluoro-N-methyl-N-{6-[4-(1H-pyrazol-4-yl)-1,3-benzothiazol-7-yl]pyridazin-3-yl}-8-azabicyclo [3.2.1]octan-3-amine] | 2 to 6 | 1.5 to 5 | 100 to 1000 | 100 to 1000 | 100 to 1000 |  |  | 
31 | CN(c1ccc(-c2ccc(-c3cn[nH]c3)c3ncsc23)nn1)[C@H]1C[C@H]2COC[C@@H](C1)N2 [Compound 356, (endo)-N-methyl-N-{6-[4-(1H-pyrazol-4-yl)-1,3-benzothiazol-7-yl]pyridazin-3-yl}-3-oxa-9-azabicyclo[3.3.1]nonan-7-amine] |  |  |  |  |  |  | 100 to 1000 | 100 to 1000

— patent US20240368163A1, “COMPOUNDS AND METHODS FOR MODULATING SPLICING” (REMIX THERAPEUTICS INC., priority 2021, published 2024)
